# Entries after “also recorded” stand apart in the source; their conditions may differ. Where two headings read alike, the source gives them in different places.
# Assays:
# Assay type in all cases: physicochemical
# [1] = pH solubility assessment in buffers at 37 °C; settings: for μL for Dissolution at 37° C.: 100 mg solid
# Protocol: CHP patterns 1 and 2 were prepared for pH solubility assessment as follows: • 100 mg of CHP pattern 1 and pattern 2 were each weighed out into 4, 5 mL screw top glass vials; • 100 μL of a selected buffer, pre-heated to 37° C., was added to each vial; • Samples were heated to 37° C. in an incubator shaker for ca. 10 minutes after each volume of buffer and checked for sample dissolution.
# [2] = Dynamic vapor sorption (DVS) at 25 °C with post-DVS XRPD; settings: for Post-DVS XRPD form: after DVS cycles at 25 °C
# Protocol: DVS was carried out by placing an approximately 10-20 mg sample into a mesh vapour sorption balance pan and loaded into a DVS Intrinsic Dynamic Vapour Sorption Balance by Surface Measurement Systems. The sample was subjected to a ramping profile from 40 to 90% relative humidity (RH) at 10% increments, maintaining the sample at each step until a stable weight had been achieved (dm/dt 0.004%, minimum step length 30 minutes, maximum step length 500 minutes) at 25° C. After completion of the sorption cycle, the sample was dried using the same procedure to 0% RH and then a second sorption cycle back to 40% RH. Two cycles were performed. The weight change during the sorption/desorption cycles were plotted, allowing for the hygroscopic nature of the sample to be determined. XRPD analysis was then carried out on any solid retained.
# (§1) Approximately, 10-20 mg of sample was placed into a mesh vapor sorption balance pan and loaded into a DVS Intrinsic dynamic vapor sorption balance by Surface Measurement Systems. The sample was subjected to a ramping profile from 40-90% relative humidity (RH) at 10% increments, maintaining the sample at each step until a stable weight had been achieved (dm/dt 0.004%, minimum step length 30 minutes, maximum step length 500 minutes) at 25° C. After completion of the sorption cycle, the sample was dried using the same procedure to 0% RH and then a second sorption cycle back to 40% RH. Two cycles were performed. The weight change during the sorption/desorption cycles were plotted, allowing for the hygroscopic nature of the sample to be determined. XRPD analysis was then carried out on any solid retained.
# [3] = Dry stability at 35, 40, 50 and 65 °C (XRPD)
# Protocol: Drying stability was carried out at 35° C., 40° C., 50° C., and 65° C. respectively.
# [4] = Variable temperature dynamic vapour sorption (VT-DVS) at 40, 50, 60 °C; settings: for Post-VT-DVS XRPD form: after cycles at 40, 50 and 60 °C
# Protocol: as §1, with “Advantage” for “Intrinsic”, “40°” for “25°”, “RH.” for “RH. Two cycles were performed.”, “determined. The experiment was repeated at 50° C. and finally at 60° C.” for “determined.”
# [5] = GMP stability study of CHP anhydrate and CHP hydrate under accelerated conditions (total impurities); settings: for Growth of total Impurities: 40 °C/75% RH
# Protocol: CHP anhydrate (Pattern 1) and hydrate (Pattern 2) compounds were manufactured under GMP conditions. A stability study for the CHP anhydrate compound was conducted under ccelerated conditions (40±5° C./75±5% RH) for six months and room temperature conditions (25±5° C./60±5% RH) for 12 months. A further stability study for the CHP hydrate compound was conducted under accelerated conditions (40±5° C./75±5% RH) for 6 months (Table 18).
# [6] = Solubility of CHP hydrate (Pattern 2) in EtOH/water/MtBE; settings: organic solvent or mixture
# [7] = Solubility of CHP hydrate (Pattern 2) in water/acetone
smiles,measurement,setting,value
"O=C1N[C@@H](Cc2cnc[nH]2)C(=O)N2CCC[C@@H]12 [Pattern 2, Pyrrolo [1,2-a]pyrazine-1,4-dione, hexahydro-3-(1H-imidazol-5-ylmethyl)-, hydrate (1:1), (3S, 8aS)-]",μL for Dissolution at 37° C.,[1]; buffer pH 1,300 µL
same,μL for Dissolution at 37° C.,[1]; buffer pH 4,300 µL
same,μL for Dissolution at 37° C.,[1]; buffer pH 6.8,300 µL
same,μL for Dissolution at 37° C.,[1]; buffer pH 7.2,300 µL
same,solubility at 10 min,"[1]; aqueous buffer, thermodynamic from solid, buffer pH 7.2, 37 °C, read-out: Approximate Solubility",333 to 500 mg/mL
same,solubility at 10 min,"[1]; buffer pH 1, 37 °C, pH 1, thermodynamic from solid, read-out: Approximate Solubility",333 to 500 mg/mL
same,solubility at 10 min,"[1]; buffer pH 4, 37 °C, pH 4, aqueous buffer, thermodynamic from solid, read-out: Approximate Solubility",333 to 500 mg/mL
same,solubility at 10 min,"[1]; buffer pH 6.8, 37 °C, pH 6.8, aqueous buffer, thermodynamic from solid, read-out: Approximate Solubility",333 to 500 mg/mL
same,solubility at 10 min,"[1]; buffer, aqueous buffer, thermodynamic from solid, all pH values tested (pH 1, 4, 6.8 and 7.2), 37 °C, read-out: Solubility (estimated)",333 to 500 mg/mL
same,Post-DVS XRPD form,[2],no change in form
same,Post-DVS XRPD form,[2]; listed as CHP pattern 2,no change in form
same,DVS water loss in equivalents,"[2]; below 10% RH, 25 °C",0.5 equiv. water
same,DVS weight loss,"[2]; below 10% RH, 25 °C",3.5 wt. %
same,Drying stability (form),"[3]; drying at 35-65 °C, up to 4 days",stable up to 40 °C for at least 4 days
same,XRPD,"[3]; drying at 35 °C, 1 d",Pattern 2
same,XRPD,"[3]; drying at 35 °C, 4 d",Pattern 2
same,XRPD,"[3]; drying at 40 °C, 1 d",Pattern 2
same,XRPD,"[3]; drying at 40 °C, 2 d",Pattern 2
same,XRPD,"[3]; drying at 40 °C, 3 d",Pattern 2
same,XRPD,"[3]; drying at 40 °C, 4 d",Pattern 2
same,XRPD,"[3]; drying at 50 °C, 1 d",Pattern 2
same,XRPD,"[3]; drying at 50 °C, 2 d",Pattern 2
same,XRPD,"[3]; drying at 50 °C, 4 d",Pattern 1
same,XRPD,"[3]; drying at 65 °C, 1 d",Pattern 2
same,XRPD,"[3]; drying at 65 °C, 2 d",Pattern 1
same,Drying stability (form),[3]; lab oven under −0.09 MPa,stable at below 40 °C
same,VT-DVS water loss in equivalents,"[4]; 40 °C, from 10 to 0% RH",0.8 equiv water
same,VT-DVS weight loss,"[4]; 40 °C, from 10 to 0% RH",approx. 5.8 wt %
same,VT-DVS weight loss,"[4]; 40 °C, from 10 to 0% RH, listed as CHP Hydrate, Pattern 2",5.8 wt %
same,VT-DVS weight loss,"[4]; 40 °C, from 10 to 0% RH, listed as CHP pattern 2",approximately 5.8 wt %
same,VT-DVS water loss in equivalents,"[4]; 50 °C, from 20 to 0% RH",0.8 equiv water
same,VT-DVS weight loss,"[4]; 50 °C, from 20 to 0% RH",approximately 6.1 wt %
same,VT-DVS weight loss,"[4]; 50 °C, from 20 to 0% RH, listed as CHP Hydrate, Pattern 2",6.1 wt %
same,VT-DVS weight loss,"[4]; 50 °C, from 20 to 0% RH, listed as CHP pattern 2",approx. 6.1 wt %
same,VT-DVS water loss in equivalents,"[4]; 60 °C, from 20 to 0% RH",1.0 equiv water
same,VT-DVS weight loss,"[4]; 60 °C, from 20 to 0% RH",approximately 7 wt %
same,VT-DVS weight loss,"[4]; 60 °C, from 20 to 0% RH, listed as CHP Hydrate, Pattern 2",7 wt %
same,VT-DVS weight loss,"[4]; 60 °C, from 20 to 0% RH, listed as CHP pattern 2",approx. 7 wt %
same,RH below which dehydration starts,[4]; VT-DVS at 40 °C,below 10 % RH
same,RH below which dehydration starts,[4]; VT-DVS at 50 °C,below 20 % RH
same,RH below which dehydration starts,[4]; VT-DVS at 60 °C,below 20 % RH
same,Post-VT-DVS XRPD form,[4],mixture of Patterns 1 and 2
same,Post-VT-DVS XRPD form,[4]; listed as CHP pattern 2,mixture of pattern 1 and pattern 2; also recorded: mixture of pattern 1 and 2
same,Growth of total Impurities,[5]; 0M,0%
same,Growth of total Impurities,[5]; 1M,0%
same,Growth of total Impurities,"[5]; 3M, listed as CHP hydrate (pattern 2)",0.00%
same,Growth of total Impurities,"[5]; 6M, listed as CHP hydrate (pattern 2)",0.05%
same,Quality changes during stability study,[5]; accelerated conditions for 6 months,no significant quality changes
same,solubility,"[6]; (EtOH/water = 9/1)/MtBE 3/0 (v/v), 5 °C",121 mg/mL
same,solubility,"[6]; (EtOH/water = 9/1)/MtBE 3/0 (v/v), 50 °C",> 200 mg/mL
same,solubility,"[6]; (EtOH/water = 9/1)/MtBE 3/1 (v/v), 5 °C",59 mg/mL
same,solubility,"[6]; (EtOH/water = 9/1)/MtBE 3/1 (v/v), 50 °C",> 200 mg/mL
same,solubility,"[6]; (EtOH/water = 9/1)/MtBE 3/3 (v/v), 5 °C",30 mg/mL
same,solubility,"[6]; (EtOH/water = 9/1)/MtBE 3/3 (v/v), 50 °C",101 mg/mL
same,solubility,"[6]; (EtOH/water = 9/1)/MtBE 3/6 (v/v), 5 °C",6 mg/mL
same,solubility,"[6]; (EtOH/water = 9/1)/MtBE 3/6 (v/v), 50 °C",24 mg/mL
same,solubility,"[6]; (EtOH/water = 9/1)/MtBE 3/9 (v/v), 5 °C",6 mg/mL
same,solubility,"[6]; (EtOH/water = 9/1)/MtBE 3/9 (v/v), 50 °C",17 mg/mL
same,solubility,"[7]; water/acetone 0/10 (v/v), 50 °C, organic solvent or mixture",14 mg/mL
same,solubility,"[7]; water/acetone 0.5/9.5 (v/v), 50 °C, organic solvent or mixture",49 mg/mL
same,solubility,"[7]; water/acetone 1/9 (v/v), 5 °C, organic solvent or mixture",48 mg/mL
same,solubility,"[7]; water/acetone 1/9 (v/v), 50 °C, organic solvent or mixture",159 mg/mL
same,solubility,"[7]; water/acetone 2/8 (v/v), 5 °C, organic solvent or mixture",110 mg/mL
same,solubility,"[7]; water/acetone 4/6 (v/v), 5 °C, organic solvent or mixture",179 mg/mL
same,solubility,"[7]; water/acetone 6/4 (v/v), 5 °C, aqueous with cosolvent or surfactant or cyclodextrin",206 mg/mL
same,solubility,"[7]; water/acetone 8/2 (v/v), 5 °C, aqueous with cosolvent or surfactant or cyclodextrin",> 200 mg/mL
same,solubility,"[7]; water/acetone 9/1 (v/v), 5 °C, aqueous with cosolvent or surfactant or cyclodextrin",215 mg/mL
same,solubility,"[7]; water/acetone, 5 °C, organic solvent or mixture, water/acetone 0/10 (v/v)",17 mg/mL
same,solubility,"[7]; water/acetone, 5 °C, organic solvent or mixture, water/acetone 0.5/9.5 (v/v)",19 mg/mL
same,solubility,"[7]; water/acetone, 50 °C, aqueous with cosolvent or surfactant or cyclodextrin, water/acetone 6/4 (v/v)",> 200 mg/mL
same,solubility,"[7]; water/acetone, 50 °C, aqueous with cosolvent or surfactant or cyclodextrin, water/acetone 8/2 (v/v)",> 200 mg/mL
same,solubility,"[7]; water/acetone, 50 °C, aqueous with cosolvent or surfactant or cyclodextrin, water/acetone 9/1 (v/v)",> 200 mg/mL
same,solubility,"[7]; water/acetone, 50 °C, organic solvent or mixture, water/acetone 2/8 (v/v)",> 200 mg/mL
same,solubility,"[7]; water/acetone, 50 °C, organic solvent or mixture, water/acetone 4/6 (v/v)",> 200 mg/mL

# From patent publication US12534496B2, “Polymorphic forms of Cyclo (-His-Pro) and methods of use to treat kidney disease” (NovMetaPharma Co., Ltd., priority 2018, dated 2026)
